Measurements reported in patent US20260347373A1, “HETEROCYCLIC COMPOUNDS, COMPOSITIONS THEREOF, AND METHODS OF TREATMENT THEREWITH” (BeOne Medicines I GmbH, priority 2023, published 2026).

How the values were obtained:
KRAS G12D = KRAS G12D (Homo sapiens, UniProt P01116, G12D); assay: KRAS G12D Probe Displacement Assay (TR-FRET, GDP-loaded); type: binding; conditions: KRAS G12D, read-out: KRAS^G12D Probe Displacement Assay IC50
Description: (§1) The synthetic routes of probe 1 and 2, which have been disclosed in PCT/CN2022/070676, are hereby incorporated herein.

WT KRAS = WT KRAS (Homo sapiens, UniProt P01116); assay: KRAS WT Probe Displacement Assay (TR-FRET, GDP-loaded); type: binding; conditions: KRAS WT, read-out: KRAS^WT Probe Displacement Assay IC50
Description: as §1

Sequence of WT KRAS (P01116 1-188 isoform P01116-2): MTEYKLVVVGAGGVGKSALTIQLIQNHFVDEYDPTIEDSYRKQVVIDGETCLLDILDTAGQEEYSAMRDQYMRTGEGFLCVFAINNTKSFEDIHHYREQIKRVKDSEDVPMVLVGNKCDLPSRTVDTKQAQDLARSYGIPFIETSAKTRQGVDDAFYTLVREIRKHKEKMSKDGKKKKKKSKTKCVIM
Sequence of KRAS G12D (P01116 1-188 isoform P01116-2 G12D): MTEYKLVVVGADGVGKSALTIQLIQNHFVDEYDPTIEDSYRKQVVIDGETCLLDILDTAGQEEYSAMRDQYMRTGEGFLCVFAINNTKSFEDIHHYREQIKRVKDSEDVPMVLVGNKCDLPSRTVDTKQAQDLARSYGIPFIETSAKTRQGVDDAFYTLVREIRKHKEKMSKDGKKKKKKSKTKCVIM

| SMILES | IC50 (KRAS G12D) [nM] | IC50 (WT KRAS) [nM] |
| --- | --- | --- |
| Cc1cc(N)cc(-c2nc3c4c(nc(N5CC(N(C)C)C5)nc4c2F)N2C[C@H]4CC[C@H](N4)[C@H]2CCO3)c1C(F)(F)F [Example 32, 1-((6aR,7S,10R)-2-(5-amino-3-methyl-2-(trifluoromethyl)phenyl)-1-fluoro-5,6,6a,7,8,9,10,11-octahydro-4-oxa-3,11a,12,14,15-pentaaza-7,10-methanocyclohepta[4,5]cycloocta [1,2,3-de]naphthalen-13-yl)-N,N-dimethylazetidin-3-amine] | 0.3 to 3 | 3 to 1000 |
| Nc1cc(Cl)c(C(F)(F)F)c(-c2nc3c4c(nc(OCC56C[C@@H](F)CN5C[C@H](F)C6)nc4c2F)N2C[C@H]4CC[C@H](N4)[C@H]2CCO3)c1 [Example 72, 3-chloro-5-((6aR,7S,10R)-13-(((2R,6R)-2,6-difluorotetrahydro-1H-pyrrolizin-7a(5H)-yl)methoxy)-1-fluoro-5,6,6a,7,8,9,10,11-octahydro-4-oxa-3,11a,12,14,15-pentaaza-7,10-methanocyclohepta[4,5]cycloocta [1,2,3-de]naphthalen-2-yl)-4-(trifluoromethyl)aniline] | < 0.3 | 3 to 1000 |
| Cc1cc(N)cc(-c2nc3c4c(nc(OCC5(CN6CCC7(CC6)CC7(F)F)CC5)nc4c2F)N2C[C@H]4CC[C@H](N4)[C@H]2CCO3)c1C(F)(F)F [Example 158, 3-((6aR,7S,10R)-13-((1-((1,1-difluoro-6-azaspiro[2.5]octan-6-yl)methyl)cyclopropyl)methoxy)-1-fluoro-5,6,6a,7,8,9,10,11-octahydro-4-oxa-3,11a,12,14,15-pentaaza[7,10]methanocyclohepta[4,5]cycloocta[1,2,3-de]naphthalen-2-yl)-5-methyl-4-(trifluoromethyl)aniline] | < 0.3 | 0.3 to 3 |
| [2H]C([2H])([2H])N1CCC[C@H]1[C@H](C)Oc1nc2c3c(nc(-c4cc(N)cc(C)c4C(F)(F)F)c(F)c3n1)OCC[C@@H]1[C@@H]3CC[C@H](CN21)N3 [Example 141, 3-((6aR,7S,10R)-1-fluoro-13-((S)-1-((S)-1-(methyl-d3)pyrrolidin-2-yl)ethoxy)-5,6,6a,7,8,9,10,11-octahydro-4-oxa-3,11a,12,14,15-pentaaza-7,10-methano-cyclohepta[4,5]cycloocta [1,2,3-de]naphthalen-2-yl)-5-methyl-4-(trifluoromethyl)aniline] | < 0.3 | 3 to 1000 |
| CN(C)C[C@]1(COc2nc3c4c(nc(-c5cc(N)cc(Cl)c5C(F)(F)F)c(F)c4n2)OCC[C@@H]2[C@@H]4CC[C@H](CN32)N4)CC1(F)F [Example 44, 3-chloro-5-((6aR,7S,10R)-13-(((S)-1-((dimethylamino)methyl)-2,2-difluorocyclopropyl)methoxy)-1-fluoro-5,6,6a,7,8,9,10,11-octahydro-4-oxa-3,11a,12,14,15-pentaaza-7,10-methanocyclohepta[4,5]cycloocta [1,2,3-de]naphthalen-2-yl)-4-(trifluoromethyl)aniline] | < 0.3 | 0.3 to 3 |
| Cc1cc(N)cc(-c2nc3c4c(nc(OCC5(CN6CCC[C@@H]6C)CC5)nc4c2F)N2C[C@H]4CC[C@H](N4)[C@H]2CCO3)c1C(F)(F)F [Example 123, 3-((6aR,7S,10R)-1-fluoro-13-((1-(((S)-2-methylpyrrolidin-1-yl)methyl)cyclopropyl)methoxy)-5,6,6a, 7,8,9,10,11-octahydro-4-oxa-3,11a,12,14,15-pentaaza-7,10-methanocyclohepta [4,5]cycloocta [1,2,3-de]naphthalen-2-yl)-5-methyl-4-(trifluoromethyl)aniline] | < 0.3 | 3 to 1000 |
| Cc1cc(N)cc(-c2nc3c4c(nc(OCC5(CN6CCC(C(F)(F)F)C6)CC5)nc4c2F)N2C[C@H]4CC[C@H](N4)[C@H]2CCO3)c1C(F)(F)F (stereo partly drawn) [Example 91, 3-((6aR,7S,10R)-1-fluoro-13-((1-((3-(trifluoromethyl)pyrrolidin-1-yl)methyl)cyclopropyl)methoxy)-5,6,6a,7,8,9,10,11-octahydro-4-oxa-3,11a,12,14,15-pentaaza-7,10-methanocyclohepta [4,5]cycloocta [1,2,3-de]naphthalen-2-yl)-5-methyl-4-(trifluoromethyl)aniline] | < 0.3 | 3 to 1000 |
| Cc1cc(N)cc(-c2nc3c4c(nc(OCC5(CN6CCC(C)(C#N)C6)CC5)nc4c2F)N2C[C@H]4CC[C@H](N4)[C@H]2CCO3)c1C(F)(F)F (stereo partly drawn) [Example 167, 1-((1-((((6aR,7S,10R)-2-(5-amino-3-methyl-2-(trifluoromethyl)phenyl)-1-fluoro-5,6,6a,7,8,9,10,11-octahydro-4-oxa-3,11a,12,14,15-pentaaza-7,10-methanocyclohepta[4,5]cycloocta[1,2,3-de]naphthalen-13-yl)oxy)methyl)cyclopropyl)methyl)-3-methylpyrrolidine-3-carbonitrile] | < 0.3 | 0.3 to 3 |
| Cc1cc(N)cc(-c2nc3c4c(nc(OCC5(CN6CCC(=CF)CC6)CC5)nc4c2F)N2C[C@H]4CC[C@H](N4)[C@H]2CCO3)c1C(F)(F)F [Example 154, 3-((6aR,7S,10R)-1-fluoro-13-((1-((4-(fluoromethylene)piperidin-1-yl)methyl)cyclopropyl)methoxy)-5,6,6a,7,8,9,10,11-octahydro-4-oxa-3,11a,12,14,15-pentaaza-7,10-methanocyclohepta[4,5]cycloocta [1,2,3-de]naphthalen-2-yl)-5-methyl-4-(trifluoromethyl)aniline] | < 0.3 | 0.3 to 3 |
| Cc1cc(N)cc(-c2nc3c4c(nc(OCC5(CN6CCC6)CC5(F)F)nc4c2F)N2C[C@H]4CC[C@H](N4)[C@H]2CCO3)c1C(F)(F)F (single isomer, unassigned) [Example 57] | 0.3 to 3 | 3 to 1000 |
| Cc1cc(N)cc(-c2nc3c4c(nc(OCC5(CN6CCC(C#N)C6)CC5)nc4c2F)N2C[C@H]4CC[C@H](N4)[C@H]2CCO3)c1C(F)(F)F (stereo partly drawn) [Example 166, 1-((1-((((6aR,7S,10R)-2-(5-amino-3-methyl-2-(trifluoromethyl)phenyl)-1-fluoro-5,6,6a,7,8,9,10,11-octahydro-4-oxa-3,11a,12,14,15-pentaaza-7,10-methanocyclohepta[4,5]cycloocta[1,2,3-de]naphthalen-13-yl)oxy)methyl)cyclopropyl)methyl)pyrrolidine-3-carbonitrile] | < 0.3 | 3 to 1000 |
| Cc1cc(N)cc(-c2nc3c4c(nc(O[C@@H](C)[C@@H]5CCCN5C5CCOC5)nc4c2F)N2C[C@H]4CC[C@H](N4)[C@H]2CCO3)c1C(F)(F)F (single isomer, unassigned) [Example 228] | < 0.3 | 3 to 1000 |
| COC1CN(CC2(COc3nc4c5c(nc(-c6cc(N)cc(C)c6C(F)(F)F)c(F)c5n3)OCC[C@@H]3[C@@H]5CC[C@H](CN43)N5)CC2)C1 [Example 83, 3-((6aR,7S,10R)-1-fluoro-13-((1-((3-methoxyazetidin-1-yl)methyl)cyclopropyl)methoxy)-5,6,6a,7,8,9,10,11-octahydro-4-oxa-3,11a,12,14,15-pentaaza-7,10-methanocyclohepta [4,5]cycloocta [1,2,3-de]naphthalen-2-yl)-5-methyl-4-(trifluoromethyl)aniline] | < 0.3 | 3 to 1000 |
| Cc1cc(N)cc(-c2nc3c4c(nc(OCC5(CN6CCC6)CC5)nc4c2F)N2C[C@H]4CC[C@H](N4)[C@H]2CCO3)c1C(F)(F)F [Example 78, 3-((6aR,7S,10R)-13-((1-(azetidin-1-ylmethyl)cyclopropyl)methoxy)-1-fluoro-5,6,6a,7,8,9,10,11-octahydro-4-oxa-3, 11a,12,14,15-pentaaza-7,10-methanocyclohepta [4,5]cycloocta [1,2,3-de]naphthalen-2-yl)-5-methyl-4-(trifluoromethyl)aniline] | 0.3 to 3 | 3 to 1000 |
| CO[C@@H]1CCN(CC2(COc3nc4c5c(nc(-c6cc(N)cc(C)c6C(F)(F)F)c(F)c5n3)OCC[C@@H]3[C@@H]5CC[C@H](CN43)N5)CC2)C1 [Example 87, 3-((6aR,7S,10R)-1-fluoro-13-((1-(((R)-3-methoxypyrrolidin-1-yl)methyl)cyclopropyl)methoxy)-5,6,6a,7,8,9,10,11-octahydro-4-oxa-3,11a,12,14,15-pentaaza-7,10-methanocyclohepta [4,5]cycloocta [1,2,3-de]naphthalen-2-yl)-5-methyl-4-(trifluoromethyl)aniline] | < 0.3 | 3 to 1000 |
| C=C1CN2C[C@H](F)C[C@@]2(COc2nc3c4c(nc(-c5cc(N)cc(C)c5C(F)(F)F)c(F)c4n2)OCC[C@@H]2[C@@H]4CC[C@H](CN32)N4)C1 [Example 208, 3-((6aR,7S,10R)-1-fluoro-13-(((2R,7aR)-2-fluoro-6-methylenetetrahydro-1H-pyrrolizin-7a(5H)-yl)methoxy)-5,6,6a,7,8,9,10,11-octahydro-4-oxa-3,11a,12,14,15-pentaaza-7,10-methanocyclohepta[4,5]cycloocta[1,2,3-de]naphthalen-2-yl)-5-methyl-4-(trifluoromethyl)aniline] | < 0.3 | 0.3 to 3 |
| Cc1cc(N)cc(-c2nc3c4c(nc(OCC5(CN6CC7(C6)CC(F)(F)C7)CC5)nc4c2F)N2C[C@H]4CC[C@H](N4)[C@H]2CCO3)c1C(F)(F)F [Example 176, 3-((6aR,7S,10R)-13-((1-((6,6-difluoro-2-azaspiro[3.3]heptan-2-yl)methyl)cyclopropyl)methoxy)-1-fluoro-5,6,6a,7,8,9,10,11-octahydro-4-oxa-3,11a,12,14,15-pentaaza[7,10]methanocyclohepta[4,5]cycloocta[1,2,3-de]naphthalen-2-yl)-5-methyl-4-(trifluoromethyl)aniline] | < 0.3 | 3 to 1000 |
